Where two headings read alike, the source gives them in different places.
How the values were obtained:
[1] = target: T1, human MMP-12 (Homo sapiens, UniProt P39900); settings: read-out: Ki toward human MMP-12; cited from earlier work
[2] = system: atherosclerotic plaque; settings: mouse model of atherosclerosis; cited from earlier work
[3] = target: T1, human MMP-12; test: ability to block MMP-12 activity in presence of human serum albumin; assay type: biochemical; settings: hSA 5 μM
[4] = target: T1, human MMP-12; test: in vitro binding; assay type: biochemical; settings: read-out: Ki (nM)/hMMP12; 50 mM Tris/HCl buffer, pH 6.8, 10 mM CaCl2, 25 °C; mean ± SD of three experiments
[5] = biodistribution: tissue fluorescence in harvested organs; assay type: in vivo, C57BL/6 mice; settings: organs harvested 4h post-injection, 1 nmol injected
[6] = blood clearance after intravenous injection in mice; assay type: in vivo; settings: C57BL/6 mice, 1 nmol injected, n=3, 4h post-injection
[7] = LC/MS analysis of mouse urine; assay type: in vivo, C57BL/6 mice; settings: mouse urine 4h after injection

T1 sequence (P39900 106-470): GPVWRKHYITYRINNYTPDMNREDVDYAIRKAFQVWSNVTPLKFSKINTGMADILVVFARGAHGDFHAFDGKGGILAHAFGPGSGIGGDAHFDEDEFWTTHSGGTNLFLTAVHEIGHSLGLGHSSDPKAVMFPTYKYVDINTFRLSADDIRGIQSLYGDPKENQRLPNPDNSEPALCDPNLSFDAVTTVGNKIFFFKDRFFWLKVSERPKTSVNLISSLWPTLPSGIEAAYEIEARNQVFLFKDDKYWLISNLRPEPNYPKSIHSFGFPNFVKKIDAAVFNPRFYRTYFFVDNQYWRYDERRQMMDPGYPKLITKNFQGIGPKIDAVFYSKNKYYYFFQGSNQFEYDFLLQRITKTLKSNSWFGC

Compound	Ki [1]	effect on atherosclerotic plaque [2]	shift of Ki in presence of human serum albumin [3]	Ki [4]	tissue fluorescence in liver, spleen, kidneys and lungs [5]	percentage of injected dose remaining in the bloodstream 4h post-injection [6]	conversion into a second metabolite in urine [7]
NC(=O)[C@H](CCC(=O)O)NC(=O)[C@H](CCC(=O)O)NC(=O)[C@H](Cc1cc(-c2ccc(-c3cccc(Cl)c3)cc2)no1)CP(=O)(O)c1ccc(Br)cc1 [RXP470.1, reference compound]	0.26 nM	inhibit atherosclerotic plaque growth	8.5 fold	0.26 ± 0.05 nM			
CC[N+]1=C(C=CC=CC=C2N(CCCCCC(=O)NCCOCCOCCNC(=O)[C@H](CCC(=O)O)NC(=O)[C@H](CCC(=O)O)NC(=O)[C@H](Cc3cc(-c4ccc(-c5cccc(Cl)c5)cc4)no3)CP(=O)(O)c3ccc(Br)cc3)c3ccc4c(S(=O)(=O)O)cc(S(=O)(=O)[O-])cc4c3C2(C)C)C(C)(C)c2c1ccc1c(S(=O)(=O)O)cc(S(=O)(=O)O)cc21 [probe 1]			88 fold		higher fluorescence signals in the kidneys relative to the liver	25.1±2.9 %ID	
CC1(C)C(=CC=C2CCCC(C=CC3=[N+](CCCCCC(=O)NCCOCCOCCNC(=O)[C@H](CCC(=O)O)NC(=O)[C@H](CCC(=O)O)NC(=O)[C@H](Cc4cc(-c5ccc(-c6cccc(Cl)c6)cc5)no4)CP(=O)(O)c4ccc(Br)cc4)c4ccc(S(=O)(=O)O)cc4C3(C)C)=C2Oc2ccc(S(=O)(=O)O)cc2)N(CCCCS(=O)(=O)O)c2ccc(S(=O)(=O)[O-])cc21 [probe 4]					cleared by the kidneys, but its uptake by the liver is not negligible		about 50%
